Data reported in patent publication US12419307B2, “Mixtures comprising indazole pesticides” (FMC Corporation, priority 2019, dated 2025).
Like-named read-outs stand apart in the source and are kept apart here.

Experiments:
Format in all cases: in vivo
[1] = test system: Western Flower Thrips (Frankliniella occidentalis Pergande); assay: Test B: Western Flower Thrips control on bean plants, plant damage rating converted to % plant protection after 7 days; details: for Plant Damage (obs): Table 3a; for Plant Damage (obs) / Plant Protection (obs): applied alone
Summary of the method: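 Sprayed 5- to 7-day-old bean (var. Soleil) plants, 3 replicates, dried 1 h, then infested with 22 to 27 adult thrips and held 7 days at 25° C, 45-55% RH. Feeding damage rated 0-10 and converted as 100−(rating×10) to % plant protection.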

[2] = test system: fall armyworm (Spodoptera frugiperda (J. E. Smith)); assay: Test E: fall armyworm control on corn plants, plant damage rating and mortality after 6 days; details: Spodoptera frugiperda, 144 h, read-out: Plant Protection (obs)
Method: (§1) The pest control protection afforded by the mixtures or compositions is not limited, however, to these species. The analysis of enhanced activity between the mixtures or compositions was determined using Colby's equation. The average % mortality data for the test compounds alone were inserted into the Colby's equation. If the observed (obs) average % mortality was higher than “p”, the expected (exp) % mortality, the mixture or composition had enhanced effects. If the observed average % mortality was equal to or lower than the expected mortality, the mixture or composition either had no enhanced effect. For bioassays where insect feeding damage was evaluated, enhanced activity is identified when the observed plant damage is less than the expected plant damage rating; ratings ranged between 0 (no damage) and 10 (dead plant) and each value was converted to a % plant protection. 100−(Obs Plant Damage*10)
For evaluating control of fall armyworm (Spodoptera frugiperda (J. E. Smith)) the test unit consisted of a small open container with a 4-5-day-old corn (maize) plant inside. This was pre-infested with 10-15 1-day-old larvae on a piece of insect diet. Test compounds were formulated and sprayed with 3 replications as described for Test A. After spraying of the formulated test compound, the test units were maintained in a growth chamber for 6 days at 25° C. and 70% relative humidity. Plant feeding damage was then visually assessed based on foliage consumed, and larvae were assessed for mortality. Each test unit was then visually assessed for plant damage and rated 0-10, where 0=undamaged and 10=plant is dead; the results are listed in Tables 6d-i.

[3] = test system: Potato Leafhopper (Empoasca fabae Harris); assay: Test C: Potato Leafhopper control on bean plants, insect mortality after 6 days; details: read-out: % Mortality (obs)
Method: as §1
For evaluating control of Potato Leafhopper (Empoasca fabae Harris) through contact and/or systemic means, each test unit consisted of a small open container with a 5- to 6-day-old Longio bean plant (primary leaves emerged) inside. White sand was added to the top of the soil, and one of the primary leaves was excised prior to application. Test compounds were formulated and sprayed with 3 replications as described for Test A. After spraying, the test units were allowed to dry for 1 hour before they were infested with 5 potato leafhoppers (18- to 21-day-old adults). A black, screened cap was placed on the top of each container. The test units were held for 6 days in a growth chamber at 19-21° C. and 50-70% relative humidity.

[4] = test system: diamondback moth (Plutella xylostella L.); assay: Test E: diamondback moth control on mustard plants, contact and/or systemic, plant damage rating after 6 days
Method: as §1
For evaluating control of diamondback moth (Plutella xylostella L.) through contact and/or systemic means, each test unit consisted of a small open container with a 10- to 12-day-old mustard plant inside. Test compounds were formulated and sprayed with 3 replications as described for Test A. After spraying, the test units were allowed to dry for 1 hour before they were infested with 30-50 neonate larvae. A black, screened cap was placed on the top of each container. The test units were held for 6 days in a growth chamber at 24-25° C. and 70% relative humidity. Each test unit was then visually assessed for plant damage and rated 0-10, where 0=undamaged and 10=plant is dead; the results are listed in Tables 6a-b.

SMILES	pest or weed control at 50 ppm ([2]; Table 6e) [%]	pest or weed control at 250 ppm ([2]; Table 6e) [%]	pest or weed control at 50 ppm ([2]; Table 6f) [%]	pest or weed control at 250 ppm ([2]; Table 6f) [%]	pest or weed control at 50 ppm ([2]; Table 6g) [%]	pest or weed control at 250 ppm ([2]; Table 6g) [%]	pest or weed control at 50 ppm ([2]; Table 6i) [%]	pest or weed control at 250 ppm ([2]; Table 6i) [%]	pest or weed control at 50 ppm ([2]; Table 6h) [%]	pest or weed control at 250 ppm ([2]; Table 6h) [%]	pest or weed control at 50 ppm ([2]; Table 6d) [%]	pest or weed control at 250 ppm ([2]; Table 6d) [%]	mortality at 50 ppm ([3]; Table 4a) [%]	mortality at 250 ppm ([3]; Table 4a) [%]	mortality at 50 ppm ([3]; Table 4b) [%]	mortality at 250 ppm ([3]; Table 4b) [%]	mortality at 50 ppm ([3]; Table 4c) [%]	mortality at 250 ppm ([3]; Table 4c) [%]	Plant Protection (obs) ([4]; Table 6a, 50 ppm)	Plant Protection (obs) ([4]; Table 6a, 250 ppm)	other results
CC1(NC(=O)c2cccc3nn(-c4cccnc4)cc23)CC1 [Cpd 4, N-(1-methylcyclopropyl)-2-(3-pyridinyl)-2H-indazole-4-carboxamide]	0	0	0	0	0	20	0	0	0	20	0	0	7.1	6.7	0	14.3	26.7	0	0.0	0.0	pest or weed control at 11.1 ppm ([1]; Frankliniella occidentalis, 168 h, Table 3e, 11.1 ppm, read-out: Plant Protection (obs)): 60%; pest or weed control at 36.8 ppm ([1]; Frankliniella occidentalis, 168 h, Table 3e, 36.8 ppm, read-out: Plant Protection (obs)): 76.7%; pest or weed control at 11.1 ppm ([1]; Frankliniella occidentalis, 168 h, Table 3f, 11.1 ppm, read-out: Plant Protection (obs)): 73.3%; pest or weed control at 36.8 ppm ([1]; Frankliniella occidentalis, 168 h, Table 3f, 36.8 ppm, read-out: Plant Protection (obs)): 90%; pest or weed control at 11.1 ppm ([1]; Frankliniella occidentalis, 168 h, Table 3g, 11.1 ppm, read-out: Plant Protection (obs)): 20%; pest or weed control at 36.8 ppm ([1]; Frankliniella occidentalis, 168 h, Table 3g, 36.8 ppm, read-out: Plant Protection (obs)): 73.3%; pest or weed control at 2.93 ppm ([1]; Frankliniella occidentalis, 168 h, Table 3d, 2.93 ppm, read-out: Plant Protection (obs)): 50%; pest or weed control at 11.1 ppm ([1]; Frankliniella occidentalis, 168 h, Table 3d, 11.1 ppm, read-out: Plant Protection (obs)): 60%; pest or weed control at 16.1 ppm ([1]; Frankliniella occidentalis, 168 h, Table 3d, 16.1 ppm, read-out: Plant Protection (obs)): 86.7%; pest or weed control at 36.8 ppm ([1]; Frankliniella occidentalis, 168 h, Table 3d, 36.8 ppm, read-out: Plant Protection (obs)): 93.3%; Plant Damage (obs) ([1]; 11.1 ppm): 43.3%; Plant Damage (obs) ([1]; 36.8 ppm): 86.7%; Plant Protection (obs) ([1]; Table 3b, 11.1 ppm): 40.0%; Plant Protection (obs) ([1]; Table 3b, 36.8 ppm): 86.7%; Plant Protection (obs) ([1]; Table 3c, 11.1 ppm): 36.7%; Plant Protection (obs) ([1]; Table 3c, 36.8 ppm): 70.0%; Plant Protection (obs) ([4]; Table 6b, 50 ppm): 0.0; Plant Protection (obs) ([4]; Table 6b, 250 ppm): 0.0
O=C(NC1(C(F)F)CC1)c1cccc2nn(-c3cccnc3)cc12 [Cpd 5, N-[1-(difluoromethyl)cyclopropyl]-2-(3-pyridinyl)-2H-indazole-4-carboxamide]	0	0	0	0	0	0	0	13.3	0	0	0	13.3	0	26.7	0	6.7	6.7	26.7	0.0	0.0	pest or weed control at 0.4 ppm ([1]; Frankliniella occidentalis, 168 h, Table 3e, 0.4 ppm, read-out: Plant Protection (obs)): 70%; pest or weed control at 2 ppm ([1]; Frankliniella occidentalis, 168 h, Table 3e, 2 ppm, read-out: Plant Protection (obs)): 26.7%; pest or weed control at 0.4 ppm ([1]; Frankliniella occidentalis, 168 h, Table 3f, 0.4 ppm, read-out: Plant Protection (obs)): 33.3%; pest or weed control at 2 ppm ([1]; Frankliniella occidentalis, 168 h, Table 3f, 2 ppm, read-out: Plant Protection (obs)): 60%; pest or weed control at 0.4 ppm ([1]; Frankliniella occidentalis, 168 h, Table 3g, 0.4 ppm, read-out: Plant Protection (obs)): 13.3%; pest or weed control at 2 ppm ([1]; Frankliniella occidentalis, 168 h, Table 3g, 2 ppm, read-out: Plant Protection (obs)): 26.7%; pest or weed control at 0.4 ppm ([1]; Frankliniella occidentalis, 168 h, Table 3d, 0.4 ppm, read-out: Plant Protection (obs)): 43.3%; pest or weed control at 2 ppm ([1]; Frankliniella occidentalis, 168 h, Table 3d, 2 ppm, read-out: Plant Protection (obs)): 63.3%; Plant Damage (obs) ([1]; 0.4 ppm): 20.0%; Plant Damage (obs) ([1]; 2 ppm): 40.0%; Plant Protection (obs) ([1]; Table 3b, 0.4 ppm): 23.3%; Plant Protection (obs) ([1]; Table 3b, 2 ppm): 36.7%; Plant Protection (obs) ([1]; Table 3c, 0.4 ppm): 16.7%; Plant Protection (obs) ([1]; Table 3c, 2 ppm): 40.0%; Plant Protection (obs) ([4]; Table 6b, 50 ppm): 0.0; Plant Protection (obs) ([4]; Table 6b, 250 ppm): 0.0
